This test concerns Nrf2. Description: Evaluation of Nrf2 activation ability (Nrf2d-LacZ / Keap1 HEK293 reporter, Beta-Glo luminescence). The format is cell-based, human. How it is done: HEK293 cells constantly expressing Nrf2d-LacZ (human Nrf2 degron region fused to LacZ; Hirotsu et al, Genes to Cell, Vol. 16, pp. 406-415 (2011)) and human Keap1 were seeded 7,000 cells/27 μl/well on 384-well plates (Corning 384 Well Flat Clear Bottom White Polystyrene TC-Treated Microplates, Cat. #3707), and cultured overnight at 5% CO2, 37° C. in DMEM medium containing 10% FBS, 100 U/mL penicillin and 100 μg/mL streptomycin. 3 μL/well of a 0.1% DMSO solution of the compound of the invention was added to the cells, which were then cultured for 3 hours at 5% CO2, 37° C. Beta-Glo® reagent (Promega, Beta-Glo Assay System, Cat. #E4740) was added 15 μL/well and incubated for 1 hour at room temperature, and luminescence intensity was measured with a luminometer. Using CDDO-Im as a standard, Nrf2 activation ability was calculated given 100% as the luminescence under stimulus with 100 nM CDDO-Im.

Setting [1] is: rated A/B/C, Pharmacological Test Example 1.
[2] abbreviates: Pharmacological Test Example 1, rated A/B/C.

For 74 compounds, EC50 results are on record in US10201531B2, “Indazolyl-oxo-isothiazole compounds” (MOCHIDA PHARMACEUTICAL CO., LTD., priority 2015, dated 2019).

In the case of `Cc1nn(-c2cc(O)n[s+]2[O-])c(C)c1C1=CCC(F)(F)CC1` (centres unmarked) [Example 312], under setting [1], the EC50 (commonly the concentration that produces a half-maximal response) was 5 to 10 µM. In turn, `[O-][s+]1nc(O)cc1-n1cc(-c2ccc(F)nc2)cn1` (centres unmarked) [Example 438] showed an EC50 under setting [2] of 1 to 5 µM. As to `[O-][s+]1nc(O)cc1-n1cc(C2=Cc3ccccc3C2)cn1` (centres unmarked) [Example 394], the EC50 under setting [2] was 1 to 5 µM. Consider `[O-][s+]1nc(O)cc1-n1ncc2ccc(-c3ccccc3)cc21` (centres unmarked) [Example 78], for which, under setting [1], the EC50 was 1 to 5 µM. Still for that read-out and setting: the same measure for `COc1cc(-c2ccnc(N3CCCC3)c2)cc2c1cnn2-c1cc(O)n[s+]1[O-]` (centres unmarked) [Example 194]: < 1 µM. For `[O-][s+]1nc(O)cc1-n1cc(-c2ccc(-c3ccccc3)cc2)cn1` (centres unmarked) [Example 327], the EC50 under setting [2] fell in the range of 1 to 5 µM. The compound `Cc1ccc2cnn(-c3cc(O)n[s+]3[O-])c2c1` (centres unmarked) [Example 32] returned an EC50 under setting [1] of 1 to 5 µM. Consider `Cc1nc2c(cc1-c1ccc3c(cnn3-c3cc(O)n[s+]3[O-])c1)OCCN2C` (centres unmarked) [Example 185], for which the EC50 under setting [1] is < 1 µM. In the case of `CN(c1ccc(-c2cnn(-c3cc(O)n[s+]3[O-])c2)cn1)C1CCOCC1` (centres unmarked) [Example 459], under setting [2], the EC50 was in the range of 1 to 5 µM. For `[O-][s+]1nc(O)cc1-n1ncc2ccc(C(F)(F)F)cc21` (centres unmarked) [Example 33], the EC50 under setting [1] lay within 1 to 5 µM. Same read-out and setting: with `[O-][s+]1nc(O)cc1-n1ccc(-c2cccc(Br)c2)n1` (centres unmarked) [Example 286] the figure was < 1 µM; with `[O-][s+]1nc(O)cc1-n1cc(C2CCCCC2)cn1` (centres unmarked) [Example 306], 1 to 5 µM.

`[O-][s+]1nc(O)cc1-n1cc(-c2cccnc2C(F)(F)F)cn1` (centres unmarked) [Example 395] gave an EC50 under setting [2] of 1 to 5 µM. Same read-out and setting: the same measure for `COc1nc(Cl)ccc1-c1cnn(-c2cc(O)n[s+]2[O-])c1` (centres unmarked) [Example 435]: < 1 µM. In the case of `[O-][s+]1nc(O)cc1-n1ncc2cc(Br)ccc21` (centres unmarked) [Example 2, 5-(5-bromoindazol-1-yl)-1-oxo-1,2-thiazol-3-ol], the EC50 under setting [1] is < 1 µM. Turning to `CN1CCCOc2cc(-c3ccc4c(cnn4-c4cc(O)n[s+]4[O-])c3)cnc21` (centres unmarked) [Example 209], the EC50 under setting [1] was < 1 µM. In the case of `CN1CC(C)(C)Oc2cc(-c3ccc4c(cnn4-c4cc(O)n[s+]4[O-])c3)cnc21` (centres unmarked) [Example 188], under setting [1], the concentration giving a half-maximal response (EC50) is < 1 µM. Same read-out and setting: with `CN1CCN(c2cc(-c3ccc4c(cnn4-c4cc(O)n[s+]4[O-])c3)ccn2)CC1` (centres unmarked) [Example 52] the figure was < 1 µM; with `[O-][s+]1nc(O)cc1-n1cc2c(n1)CN(CC1CCCCC1)C2` (single isomer, unassigned) [Example 275], 1 to 5 µM. As to `CN1C(=O)COc2cc(-c3ccc4c(cnn4-c4cc(O)n[s+]4[O-])c3)cnc21` (centres unmarked) [Example 197], the EC50 under setting [1] is < 1 µM.

With `[O-][s+]1nc(O)cc1-n1ncc2cc(-c3ccc(C4CC4)nc3)ncc21` (centres unmarked) [Example 237], the EC50 under setting [1] was < 1 µM. On the same count and under the same terms, with `CN1CCOc2ccc(-c3ccc4c(cnn4-c4cc(O)n[s+]4[O-])c3)nc21` (centres unmarked) [Example 178] the figure was < 1 µM.

`Cn1cc(-c2ccc3c(cnn3-c3cc(O)n[s+]3[O-])c2)cn1` (centres unmarked) [Example 50]: under setting [1], the EC50 is < 1 µM. `[O-][s+]1nc(O)cc1-n1ncc2cc(-c3cncc(N4CCCC4)c3)ccc21` (centres unmarked) [Example 135]: the EC50 under setting [1] was < 1 µM. On to `COc1cc(-c2cnn(-c3cc(O)n[s+]3[O-])c2)ccn1` (centres unmarked) [Example 404], for which the EC50 under setting [2] is < 1 µM.

`O=C1CCCN1c1ccc(-c2ccc3c(cnn3-c3cc(O)n[s+]3[O-])c2)cn1` (centres unmarked) [Example 186]: the EC50 under setting [1] was < 1 µM. With `[O-][s+]1nc(O)cc1-n1ncc2cc(-c3cccc(CN4CCOCC4)c3)ccc21` (centres unmarked) [Example 77], the EC50 under setting [1] was < 1 µM. Still for that read-out and setting: the same measure for `CC(C)(C)OC(=O)N1CCc2nn(-c3cc(O)n[s+]3[O-])cc2C1` (centres unmarked) [Example 248]: 1 to 5 µM; for `[O-][s+]1nc(O)cc1-n1ncc2cc(OCc3ccccc3)ccc21` (centres unmarked) [Example 26]: 1 to 5 µM.

`CN1C(=O)COc2nc(-c3ccc4c(cnn4-c4cc(O)n[s+]4[O-])c3)ncc21` (centres unmarked) [Example 218] showed an EC50 under setting [1] of 1 to 5 µM. The same measure, in the same setting: with `COc1cc(-c2ccc(N3CCCCC3)nc2)c2cnn(-c3cc(O)n[s+]3[O-])c2c1` (centres unmarked) [Example 180] the figure was < 1 µM. With `Cc1cnc(-c2cnn(-c3cc(O)n[s+]3[O-])c2)c(C)n1` (centres unmarked) [Example 421], the EC50 under setting [2] lay in the range of 1 to 5 µM. On to `[O-][s+]1nc(O)cc1-n1cc(I)cn1` (centres unmarked) [Example 287], for which, under setting [1], the EC50 is 1 to 5 µM.

Under setting [1], `[O-][s+]1nc(O)cc1-n1cccn1` (centres unmarked) [Example 284] showed a concentration giving a half-maximal response (EC50) of 1 to 5 µM. As to `[O-][s+]1nc(O)cc1-n1cc(-c2ccc3c(c2)CCCC3)cn1` (centres unmarked) [Example 342], the EC50 under setting [2] is < 1 µM. In turn, `[O-][s+]1nc(O)cc1-n1ncc2cc(F)ccc21` (centres unmarked) [Example 11] registered a half-maximal effective concentration (EC50) under setting [1] of 1 to 5 µM. As for `[O-][s+]1nc(O)cc1-n1ncc2cc(-c3cncc(N4CCCCC4)c3)ccc21` (centres unmarked) [Example 153], the EC50 under setting [1] was < 1 µM. The same measure, in the same setting: the same measure for `[O-][s+]1nc(O)cc1-n1ncc2c3ccccc3ncc21` (centres unmarked) [Example 239]: < 1 µM.

For `Cc1cncc(-c2cccc3c2cnn3-c2cc(O)n[s+]2[O-])c1` (centres unmarked) [Example 100], the EC50 under setting [1] is 1 to 5 µM. Still for that read-out and setting: the same measure for `CN1CCN(c2cc(-c3ccc4c(cnn4-c4cc(O)n[s+]4[O-])c3)ccn2)CC1` (centres unmarked) [Example 53]: < 1 µM. With `COc1ccc(-c2cnn(-c3cc(O)n[s+]3[O-])c2)c(OC)n1` (centres unmarked) [Example 399], the EC50 under setting [2] is < 1 µM. As for `[2H]c1cccc(-c2ccc3c(cnn3-c3cc(O)n[s+]3[O-])c2)n1` (centres unmarked) [Example 82], the EC50 under setting [1] was < 1 µM. Consider `O=c1ccc(-c2ccc3c(cnn3-c3cc(O)n[s+]3[O-])c2)c[nH]1` (centres unmarked) [Example 125], for which the EC50 under setting [1] lay in the range of 1 to 5 µM. Consider `CN1CCOc2cc(-c3ccc4c(c3)c(Cl)nn4-c3cc(O)n[s+]3[O-])cnc21` (centres unmarked) [Example 169], for which, under setting [1], the EC50 was < 1 µM.

`[O-][s+]1nc(O)cc1-n1cc(-c2ccc(-c3ccc(N4CCCCC4)nc3)nc2)cn1` (centres unmarked) [Example 442]: the EC50 under setting [2] was < 1 µM. Same read-out and setting: with `COc1ccc(-c2cnn(-c3cc(O)n[s+]3[O-])c2)c(C)n1` (centres unmarked) [Example 402] the figure was 1 to 5 µM; with `Cc1ccnc(-c2cnn(-c3cc(O)n[s+]3[O-])c2)n1` (centres unmarked) [Example 433], 1 to 5 µM. Regarding `Cc1cnc(-c2ccc3c(cnn3-c3cc(O)n[s+]3[O-])c2)cn1` (centres unmarked) [Example 123], the EC50 under setting [1] was < 1 µM. The same measure, in the same setting: with `[O-][s+]1nc(O)cc1-n1ncc2cc(-c3ccc(N4CCCCC4)nc3)ccc21` (centres unmarked) [Example 90] the figure was < 1 µM; with `[O-][s+]1nc(O)cc1-n1ncc2cc(C3=CCOCC3)ccc21` (centres unmarked) [Example 42], < 1 µM; with `Cc1nn(-c2cc(O)n[s+]2[O-])c2ccc(Cl)cc12` (centres unmarked) [Example 15], 1 to 5 µM.

With `[O-][s+]1nc(O)cc1-n1cc(-c2cnc(C3CC3)cn2)cn1` (centres unmarked) [Example 414], the EC50 under setting [2] is < 1 µM. Take `CN1CCOc2nc(-c3ccc4c(cnn4-c4cc(O)n[s+]4[O-])c3)cnc21` (centres unmarked) [Example 210]: the EC50 under setting [1] was < 1 µM. Same read-out and setting: the same measure for `[O-][s+]1nc(O)cc1-n1ncc2c1CN(Cc1cccc(Oc3ccccc3)c1)C2` (centres unmarked) [Example 264]: 1 to 5 µM; for `[O-][s+]1nc(O)cc1-n1ncc2cc(-c3cnc4c(c3)OCCN4CC3CC3)ccc21` (centres unmarked) [Example 150]: < 1 µM. `Cn1ccc2c(-c3cnn(-c4cc(O)n[s+]4[O-])c3)cccc21` (centres unmarked) [Example 352]: under setting [2], the EC50 was < 1 µM. With `[O-][s+]1nc(O)cc1-n1cc(-c2ccc3ncccc3c2)cn1` (centres unmarked) [Example 350], the EC50 under setting [2] was < 1 µM.

Turning to `[O-][s+]1nc(O)cc1-n1ncc2c1CN(Cc1ccc(C(F)(F)F)nc1)C2` (centres unmarked) [Example 265], the EC50 under setting [1] was in the range of 5 to 10 µM. Compound `[O-][s+]1nc(O)cc1-n1cc(-c2ccc(N3CCCC3)nc2)cn1` (centres unmarked) [Example 322] had an EC50 under setting [2] of 1 to 5 µM.

As for `[O-][s+]1nc(O)cc1-n1cc(-c2ccc(C(F)(F)F)nc2)cn1` (centres unmarked) [Example 396], the EC50 under setting [2] lay within 1 to 5 µM.

The compound `[O-][s+]1nc(O)cc1-n1cc(-c2cccc3cnccc23)cn1` (centres unmarked) [Example 343] had an EC50 under setting [2] of 1 to 5 µM. On to `[O-][s+]1nc(O)cc1-n1ncc2cc(-c3cnc4ccoc4c3)ccc21` (centres unmarked) [Example 61], for which the EC50 under setting [1] is < 1 µM. Still for that read-out and setting: the same measure for `COc1cc2cnn(-c3cc(O)n[s+]3[O-])c2cn1` (centres unmarked) [Example 242]: < 1 µM; for `COc1cc(-c2ccnc(N3CCCC3)c2)c2cnn(-c3cc(O)n[s+]3[O-])c2c1` (centres unmarked) [Example 181]: 1 to 5 µM.

Regarding `Cc1nn(-c2cc(O)n[s+]2[O-])c(C)c1I` (centres unmarked) [Example 305], the EC50 under setting [1] lay in the range of 1 to 5 µM.

On to `COc1nc(-c2ccc(C3CC3)nc2)ccc1-c1cnn(-c2cc(O)n[s+]2[O-])c1` (centres unmarked) [Example 437], for which the EC50 under setting [2] was 1 to 5 µM. With `COc1cc(-c2cncc(C)c2)cc2c1cnn2-c1cc(O)n[s+]1[O-]` (centres unmarked) [Example 195], the EC50 under setting [1] was in the range of 1 to 5 µM. For `[O-][s+]1nc(O)cc1-n1ncc2c1CN(Cc1cnc3ccccc3c1)C2` (centres unmarked) [Example 263], the EC50 under setting [1] lay in the range of 1 to 5 µM. Regarding `[O-][s+]1nc(O)cc1-n1cc2c(n1)CCN(Cc1ccccc1)C2` (single isomer, unassigned) [Example 256], the EC50 under setting [1] lay in the range of 1 to 5 µM. On the same count and under the same terms, with `O=C(NC1CC1)c1ccc(-c2ccc3c(cnn3-c3cc(O)n[s+]3[O-])c2)cc1` (centres unmarked) [Example 68] the figure was 1 to 5 µM. Take `[O-][s+]1nc(O)cc1-n1ncc2cc(C(F)(F)F)ccc21` (centres unmarked) [Example 14]: the EC50 under setting [1] was < 1 µM. `COc1cc(C)c2cnn(-c3cc(O)n[s+]3[O-])c2c1` (centres unmarked) [Example 196]: the EC50 under setting [1] was 1 to 5 µM. On the same count and under the same terms, the same measure for `[O-][s+]1nc(O)cc1-n1ncc2cc(-c3cnc4c(c3)OCC3CCCN43)ccc21` (centres unmarked) [Example 212]: < 1 µM. Under setting [2], `[O-][s+]1nc(O)cc1-n1cc(CCc2ccc(Cl)nc2)cn1` (centres unmarked) [Example 452] returned an EC50 of 1 to 5 µM.
